The results in this text go back to article PMC3050028 (Neuron, 2011).

This assay has as its target T1, IR84a (Drosophila melanogaster, UniProt Q9VIA5).
T1 sequence (Q9VIA5 25-644): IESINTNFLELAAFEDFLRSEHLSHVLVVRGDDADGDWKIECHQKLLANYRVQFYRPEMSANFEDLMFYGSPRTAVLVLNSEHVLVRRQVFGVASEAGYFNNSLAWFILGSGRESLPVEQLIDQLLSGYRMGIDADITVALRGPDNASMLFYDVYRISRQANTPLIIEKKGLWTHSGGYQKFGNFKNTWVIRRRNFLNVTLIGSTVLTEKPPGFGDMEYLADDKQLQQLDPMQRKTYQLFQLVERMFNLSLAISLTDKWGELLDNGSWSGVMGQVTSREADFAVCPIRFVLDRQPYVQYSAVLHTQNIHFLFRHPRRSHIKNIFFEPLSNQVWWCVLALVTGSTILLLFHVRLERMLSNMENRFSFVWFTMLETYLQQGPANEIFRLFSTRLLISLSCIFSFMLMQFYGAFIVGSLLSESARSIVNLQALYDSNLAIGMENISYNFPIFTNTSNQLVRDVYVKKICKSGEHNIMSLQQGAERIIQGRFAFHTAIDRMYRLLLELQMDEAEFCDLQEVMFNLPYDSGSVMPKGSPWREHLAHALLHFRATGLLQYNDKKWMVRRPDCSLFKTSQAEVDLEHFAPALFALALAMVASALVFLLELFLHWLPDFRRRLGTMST
T1 sequence (Q9W365 18-936 partner): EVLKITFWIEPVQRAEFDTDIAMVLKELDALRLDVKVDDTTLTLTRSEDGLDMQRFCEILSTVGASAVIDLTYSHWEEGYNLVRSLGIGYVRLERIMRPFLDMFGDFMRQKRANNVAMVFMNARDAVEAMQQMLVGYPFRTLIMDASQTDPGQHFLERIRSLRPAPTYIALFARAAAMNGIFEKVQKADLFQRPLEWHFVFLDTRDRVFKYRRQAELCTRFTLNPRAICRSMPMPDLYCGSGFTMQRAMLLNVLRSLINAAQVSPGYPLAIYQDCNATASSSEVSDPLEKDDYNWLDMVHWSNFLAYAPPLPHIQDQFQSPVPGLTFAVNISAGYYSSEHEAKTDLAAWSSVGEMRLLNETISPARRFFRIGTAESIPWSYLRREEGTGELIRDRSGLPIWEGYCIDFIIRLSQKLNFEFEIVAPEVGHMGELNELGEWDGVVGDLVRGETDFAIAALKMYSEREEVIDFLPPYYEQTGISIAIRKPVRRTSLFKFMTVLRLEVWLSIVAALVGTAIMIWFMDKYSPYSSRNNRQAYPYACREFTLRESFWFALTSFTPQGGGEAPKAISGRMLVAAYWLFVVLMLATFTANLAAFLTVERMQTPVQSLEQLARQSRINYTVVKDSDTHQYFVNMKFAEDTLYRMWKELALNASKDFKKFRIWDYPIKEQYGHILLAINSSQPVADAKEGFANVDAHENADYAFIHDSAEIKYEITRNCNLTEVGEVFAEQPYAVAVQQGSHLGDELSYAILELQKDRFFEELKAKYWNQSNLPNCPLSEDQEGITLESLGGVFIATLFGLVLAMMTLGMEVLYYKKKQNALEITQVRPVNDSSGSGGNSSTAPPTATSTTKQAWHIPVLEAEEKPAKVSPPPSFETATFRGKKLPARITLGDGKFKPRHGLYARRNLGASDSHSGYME
Format: cell-based.

The term IC50 denotes the concentration at which inhibition is half-maximal. For `CC12CC3CC(C)(C1)CC(N)(C3)C2` [memantine], the IC50 is 39 ± 9 µM.
